≈ marks a conversion by molar mass, not a printed value.
Columns and labels:
[1] = Phosphate-buffered saline (PBS) solubility of compounds; assay type: physicochemical; settings: aqueous buffer, thermodynamic from solid, PBS pH 7.5, 0.5 mg/mL, vortexed 90 min, filtered, LC-MS/MS, read-out: Solubility Range
Description: PBS solutions (pH 7.5) were prepared according to the following compositions and stored at 4° C. Test compounds were dissolved in PBS (pH 7.5) at 0.5 mg/mL and vortexed for 90 min. The PBS solution was sequentially filtered through a 0.45, 1.2, […] syringe filter. Concentration of test compounds were determined using LC-MS/MS with appropriate dilution of the samples.

human wild type-CFTR = human wild type-CFTR (Homo sapiens, UniProt P13569); assay: Cell-based YFP assay; parameters: expressed in transfected cells; host or cells: CHO-K1 (Chinese hamster ovary); settings: CHO-K1 cells expressing human wild type-CFTR and YFP-H148Q/I152L; forskolin 20 μM = 100% activity; read-out: Cell-based YFP Assay (EC50) Concentration Range
Procedure, shortened: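 I⁻-driven YFP fluorescence quenching at 37 °C: 2 s baseline, addition of 140 mM iodide solution, then 14 s of readings at 0.4 s intervals. Cells were CHO-K1 expressing human wild-type CFTR plus YFP-H148Q/I152L. EC50 derived from averaged triplicates.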

human wild type-CFTR, sequence (P13569 whole entry): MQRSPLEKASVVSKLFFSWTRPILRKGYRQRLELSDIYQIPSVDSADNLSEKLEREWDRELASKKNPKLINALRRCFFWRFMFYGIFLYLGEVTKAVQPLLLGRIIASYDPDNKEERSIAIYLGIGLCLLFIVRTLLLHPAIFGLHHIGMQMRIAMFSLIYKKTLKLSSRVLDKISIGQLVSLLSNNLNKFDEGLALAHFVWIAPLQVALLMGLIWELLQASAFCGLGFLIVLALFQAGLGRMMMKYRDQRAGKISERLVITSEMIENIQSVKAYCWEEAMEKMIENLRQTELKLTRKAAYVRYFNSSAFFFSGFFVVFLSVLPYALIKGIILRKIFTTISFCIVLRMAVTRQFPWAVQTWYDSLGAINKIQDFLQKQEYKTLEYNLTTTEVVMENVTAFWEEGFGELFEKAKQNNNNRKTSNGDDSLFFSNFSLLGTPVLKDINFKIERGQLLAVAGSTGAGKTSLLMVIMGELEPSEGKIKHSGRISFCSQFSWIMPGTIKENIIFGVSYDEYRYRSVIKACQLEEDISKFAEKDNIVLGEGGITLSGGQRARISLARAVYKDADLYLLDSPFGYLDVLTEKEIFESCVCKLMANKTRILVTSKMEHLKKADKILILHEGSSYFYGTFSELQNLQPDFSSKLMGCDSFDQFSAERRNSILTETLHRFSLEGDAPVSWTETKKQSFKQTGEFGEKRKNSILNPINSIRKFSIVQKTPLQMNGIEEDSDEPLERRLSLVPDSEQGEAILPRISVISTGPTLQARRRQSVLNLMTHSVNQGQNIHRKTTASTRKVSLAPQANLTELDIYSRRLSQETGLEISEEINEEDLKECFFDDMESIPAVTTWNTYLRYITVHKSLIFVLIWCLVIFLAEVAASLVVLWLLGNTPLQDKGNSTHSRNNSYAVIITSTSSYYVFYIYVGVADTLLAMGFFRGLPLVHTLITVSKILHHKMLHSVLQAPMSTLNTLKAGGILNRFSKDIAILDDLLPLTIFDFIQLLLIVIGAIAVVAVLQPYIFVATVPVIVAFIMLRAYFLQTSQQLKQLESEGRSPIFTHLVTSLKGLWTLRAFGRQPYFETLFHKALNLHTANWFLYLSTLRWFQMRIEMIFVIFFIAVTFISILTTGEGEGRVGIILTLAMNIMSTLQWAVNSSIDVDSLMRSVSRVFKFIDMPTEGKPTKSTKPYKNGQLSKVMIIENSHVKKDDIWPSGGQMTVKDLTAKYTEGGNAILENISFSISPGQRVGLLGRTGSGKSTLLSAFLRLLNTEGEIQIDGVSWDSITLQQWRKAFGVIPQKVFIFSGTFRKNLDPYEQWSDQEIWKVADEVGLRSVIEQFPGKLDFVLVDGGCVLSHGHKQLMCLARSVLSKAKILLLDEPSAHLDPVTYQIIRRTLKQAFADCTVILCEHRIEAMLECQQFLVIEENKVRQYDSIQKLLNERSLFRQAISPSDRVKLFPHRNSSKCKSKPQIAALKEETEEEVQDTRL

Row | SMILES | solubility at 90 min [1] [µg/mL] | EC50 (human wild type-CFTR) [nM]
1 | COc1ccc(-c2ccnc3cc(C(=O)N4CCN(C(=O)OC(C)(C)C)CC4)nn23)cc1OC [Compound 62, tert-butyl 4-(7-(3,4-dimethoxyphenyl)pyrazolo[1,5-a]pyrimidine-2-carbonyl)piperazine-1-carboxylate] | 0.1 to 10 (≈ 0.214 to 21.4 µM) | 200 to 2000
2 | COc1ccc(-c2ccnc3cc(C(=O)NC4CCN(C(=O)OC(C)(C)C)CC4)nn23)cc1OC [Compound 63, tert-butyl 4-(7-(3,4-dimethoxyphenyl)pyrazolo[1,5-a]pyrimidine-2-carboxamido)piperidine-1-carboxylate] | 0.1 to 10 (≈ 0.208 to 20.8 µM) | 200 to 2000
3 | COc1ccc(-c2ccnc3cc(C(=O)N[C@H]4CC[C@@H](C(=O)N5CCN(C(=O)OC(C)(C)C)CC5)CC4)nn23)cc1OC [Compound 73, tert-butyl 4-((1S,4S)-4-(7-(3,4-dimethoxyphenyl)pyrazolo [1,5-a]pyrimidine-2-carboxamido)cyclohexane-1-carbonyl)piperazine-1-carboxylate] | 0.1 to 10 (≈ 0.169 to 16.9 µM) | 200 to 2000
4 | COc1ccc(-c2ccnc3cc(C(=O)N[C@H]4CC[C@H](C(=O)N5CCOCC5)CC4)nn23)cc1OC [Compound 75, 7-(3,4-dimethoxyphenyl)-N-((1R,4R)-4-(morpholine-4-carbonyl)cyclohexyl) pyrazolo[1,5-a]pyrimidine-2-carboxamide] | > 10 | ≥ 2000
5 | COc1ccc(-c2ccnc3cc(C(=O)N[C@H]4CC[C@H](C(=O)N5CCN(C(=O)OC(C)(C)C)CC5)CC4)nn23)cc1OC [Compound 76, tert-butyl 4-((1R,4R)-4-(7-(3,4-dimethoxyphenyl)pyrazolo [1,5-a]pyrimidine-2-carboxamido)cyclohexane-1-carbonyl)piperazine-1-carboxylate] | 0.1 to 10 (≈ 0.169 to 16.9 µM) | 200 to 2000
6 | COc1ccc(-c2ccnc3cc(C(=O)Nc4ccc(C(=O)N[C@@H](CC(C)C)C(=O)O)cc4)nn23)cc1OC [Compound 85, (4-(7-(3,4-dimethoxyphenyl)pyrazolo[1,5-a]pyrimidine-2-carboxamido)benzoyl)-L-leucine] | > 10 | 200 to 2000
7 | CCOc1ccc(NC(=O)Nc2cc3nccc(-c4ccc(OC)c(OC)c4)n3n2)cc1 [Compound 109, 1-(7-(3,4-dimethoxyphenyl)pyrazolo[1,5-a]pyrimidin-2-yl)-3-(4-ethoxyphenyl)urea] | < 0.1 | 200 to 2000
8 | COc1ccc(-c2ccnc3cc(C(=O)Nc4ccc(C(=O)OCc5ccccc5)cn4)nn23)cc1OC [Compound 114, benzyl 6-(7-(3,4-dimethoxyphenyl)pyrazolo [1,5-a]pyrimidine-2-carboxamido)nicotinate] | < 0.1 | < 200
9 | COc1ccc(-c2ccnc3cc(C(=O)Nc4ccc(C(=O)OCCCN5CCOCC5)cc4)nn23)cc1OC [Compound 121, 3-morpholinopropyl 4-(7-(3,4-dimethoxyphenyl)pyrazolo [1,5-a]pyrimidine-2-carboxamido)benzoate] | < 0.1 | < 200
10 | COC(=O)c1ccc(NC(=O)c2cc3nccc(-c4ccc(OC)c(OC)c4)n3n2)c(C)c1 [Compound 125, methyl 4-(7-(3,4-dimethoxyphenyl)pyrazolo [1,5-a]pyrimidine-2-carboxamido)-3-methylbenzoate] | < 0.1 | < 200
11 | COc1ccc(-c2ccnc3cc(C(=O)Nc4ccc(C(=O)NCCN5CCOCC5)cc4)nn23)cc1OC [Compound 139, 7-(3,4-dimethoxyphenyl)-N-(4-((2-morpholinoethyl)carbamoyl)phenyl)pyrazolo[1,5-a]pyrimidine-2-carboxamide] | < 0.1 | < 200
12 | COc1ccc(-c2ccnc3cc(C(=O)N4CC[C@H](NC(=O)OC(C)(C)C)C4)nn23)cc1OC [Compound 145, tert-butyl (S)-(1-(7-(3,4-dimethoxyphenyl)pyrazolo [1,5-a]pyrimidine-2-carbonyl)pyrrolidine-3-yl)carbamate] | 0.1 to 10 (≈ 0.214 to 21.4 µM) | 200 to 2000
13 | COc1ccc(-c2ccnc3cc(C(=O)Nc4ccc(C(=O)O)cc4F)nn23)cc1OC [Compound 156, 4-(7-(3,4-dimethoxyphenyl)pyrazolo[1,5-a]pyrimidine-2-carboxamido)-3-fluorobenzoic acid] | 0.1 to 10 (≈ 0.229 to 22.9 µM) | < 200
14 | COc1ccc(-c2ccnc3cc(C(=O)Nc4ccc(C(=O)N5CCOCC5)cc4F)nn23)cc1OC [Compound 157, 7-(3,4-dimethoxyphenyl)-N-(2-fluoro-4-(morpholine-4-carbonyl)phenyl)pyrazolo[1,5-a]pyrimidine-2-carboxamide] | < 0.1 | < 200
15 | COc1ccc(-c2ccnc3cc(C(=O)Nc4ccc(C(=O)N5CCOCC5)c(Cl)c4)nn23)cc1OC [Compound 160, N-(3-chloro-4-(morpholine-4-carbonyl)phenyl)-7-(3,4-dimethoxyphenyl) pyrazolo[1,5-a]pyrimidine-2-carboxamide] | < 0.1 | 200 to 2000
16 | COc1ccc(-c2ccnc3cc(C(=O)Nc4ccc(C(=O)N5CCN(C)CC5)c(Cl)c4)nn23)cc1OC [Compound 161, N-(3-chloro-4-(4-methylpiperazine-1-carbonyl)phenyl)-7-(3,4-dimethoxyphenyl)pyrazolo [1,5-a]pyrimidine-2-carboxamide] | 0.1 to 10 (≈ 0.187 to 18.7 µM) | 200 to 2000
17 | COc1ccc(-c2ccnc3cc(C(=O)Nc4ccc(C(=O)OCCCN5CCOCC5)c(F)c4)nn23)cc1OC [Compound 163, 3-morpholinopropyl 4-(7-(3,4-dimethoxyphenyl)pyrazolo [1,5-a]pyrimidine-2-carboxamido)-2-fluorobenzoate] | < 0.1 | 200 to 2000
18 | COc1ccc(-c2ccnc3cc(C(=O)Nc4ccc(C(=O)OCCN5CCOCC5)cc4)nn23)cc1OC [Compound 164, 2-morpholinoethyl 4-(7-(3,4-dimethoxyphenyl)pyrazolo [1,5-a]pyrimidine-2-carboxamido)benzoate] | < 0.1 | < 200

Next, values leading:

Row | solubility at 90 min [1] [µg/mL] | EC50 (human wild type-CFTR) [nM] | SMILES
19 | < 0.1 | < 200 | COC(=O)[C@H](Cc1ccccc1)NC(=O)c1ccc(NC(=O)c2cc3nccc(-c4ccc(OC)c(OC)c4)n3n2)cc1 [Compound 46, methyl (4-(7-(3,4-dimethoxyphenyl)pyrazolo [1,5-a]pyrimidine-2-carboxamido)benzoyl)-L-phenylalaninate]
20 | < 0.1 | < 200 | COC(=O)[C@@H]1CCCN1C(=O)c1ccc(NC(=O)c2cc3nccc(-c4ccc(OC)c(OC)c4)n3n2)cc1 [Compound 47, methyl (4-(7-(3,4-dimethoxyphenyl)pyrazolo [1,5-a]pyrimidine-2-carboxamido)benzoyl)-L-prolinate]
21 | < 0.1 | < 200 | COc1ccc(-c2ccnc3cc(C(=O)Nc4ccc(C(N)=O)cc4)nn23)cc1OC [Compound 48, N-(4-carbamoylphenyl)-7-(3,4-dimethoxyphenyl)pyrazolo [1,5-a]pyrimidine-2-carboxamide]
22 | < 0.1 | < 200 | COc1ccc(-c2ccnc3cc(C(=O)Nc4ccc(C(=O)N5CCN(C(=O)OC(C)(C)C)CC5)cc4)nn23)cc1OC [Compound 51, tert-butyl 4-(4-(7-(3,4-dimethoxyphenyl)pyrazolo [1,5-a]pyrimidine-2-carboxamido)benzoyl) piperazine-1-carboxylate]
23 | < 0.1 | < 200 | COc1ccc(-c2ccnc3cc(C(=O)Nc4cccc(C(=O)N5CCOCC5)c4)nn23)cc1OC [Compound 55, 7-(3,4-dimethoxyphenyl)-N-(3-(morpholine-4-carbonyl)phenyl)pyrazolo [1,5-a]pyrimidine-2-carboxamide]
24 | < 0.1 | < 200 | COc1ccc(-c2ccnc3cc(C(=O)Nc4cccc(C(=O)N5CCN(C(=O)OC(C)(C)C)CC5)c4)nn23)cc1OC [Compound 56, tert-butyl 4-(3-(7-(3,4-dimethoxyphenyl)pyrazolo [1,5-a]pyrimidine-2-carboxamido)benzoyl) piperazine-1-carboxylate]
25 | < 0.1 | < 200 | COC(=O)[C@H](CC(C)C)NC(=O)c1ccc(NC(=O)c2cc3nccc(-c4ccc(OC)c(OC)c4)n3n2)cc1 [Compound 57, methyl (4-(7-(3,4-dimethoxyphenyl)pyrazolo [1,5-a]pyrimidine-2-carboxamido)benzoyl)-L-leucinate]
26 | < 0.1 | < 200 | COC(=O)[C@@H](NC(=O)c1ccc(NC(=O)c2cc3nccc(-c4ccc(OC)c(OC)c4)n3n2)cc1)C(C)C [Compound 58, methyl (4-(7-(3,4-dimethoxyphenyl)pyrazolo [1,5-a]pyrimidine-2-carboxamido)benzoyl)-L-valinate]
27 | < 0.1 | < 200 | COC(=O)C1CN(C(=O)c2ccc(NC(=O)c3cc4nccc(-c5ccc(OC)c(OC)c5)n4n3)cc2)C1 [Compound 65, methyl 1-(4-(7-(3,4-dimethoxyphenyl)pyrazolo[1,5-a]pyrimidine-2-carboxamido)benzoyl) azetidine-3-carboxylate]
28 | < 0.1 | < 200 | COc1ccc(-c2ccnc3cc(C(=O)NC45CC(C(=O)N6CCN(C(=O)OC(C)(C)C)CC6)(C4)C5)nn23)cc1OC [Compound 92, tert-butyl 4-(3-(7-(3,4-dimethoxyphenyl)pyrazolo [1,5-a]pyrimidine-2-carboxamido)bicyclo [1.1.1]pentane-1-carbonyl)piperazine-1-carboxylate]

Reference: patent US20240199623A1 (ILDONG PHARMACEUTICAL CO., LTD., priority 2020, published 2024)
